Reference: patent US11648208B2, “Nano complex comprising a nano drug delivery matrix; and a ginseng extract or a ginsenoside isolated therefrom” (priority 2016, dated 2023)

What was measured:
[1] = test system: Vibrio parahaemolyticus [ATCC 33844]; test: Antimicrobial activity, disk diffusion method on Muller-Hinton agar; assay type: cell-based; settings: in mm
[2] = test system: Escherichia coli [ATCC 10798]; test: as above; assay type: cell-based; settings: in mm
[3] = test system: Salmonella enterica [ATCC 13076]; test: as above; assay type: cell-based; settings: in mm
[4] = Solubility for water (microscopic images, HPLC of supernatants); assay type: physicochemical
Text: High water solubility advantageously enhances pharmacokinetic properties such as bioavailability, membrane permeability, therapeutic activity, etc.

[5] = test system: keratinocyte (HaCaT Skin); test: Cytotoxicity by MTT assay on keratinocytes; settings: up to a concentration of 15 μM

SMILES | Zone of inhibition [1] | Zone of inhibition [2] | Zone of inhibition [3] | solubility for water [4] | cytotoxicity on keratinocyte cell line [5]
CN(C)[C@@H]1C(=O)C(C(N)=O)=C(O)[C@@]2(O)C(=O)C3=C(O)c4c(O)cccc4[C@@](C)(O)[C@H]3C[C@@H]12 [Tetracyclin, tetracycline] | 25 ± 0.6 | 20 ± 0.1 | 30 ± 0.3 |  | 
CC(C)=CCC[C@](C)(O[C@@H]1O[C@H](CO)[C@@H](O)[C@H](O)[C@H]1O)[C@H]1CC[C@]2(C)[C@@H]1[C@H](O)C[C@@H]1[C@@]3(C)CC[C@H](O)C(C)(C)[C@@H]3CC[C@]12C [CK, ginsenoside Compound K] |  |  |  | insoluble even at a low concentration | 
CC(C)=CCC[C@](C)(O)[C@H]1CC[C@]2(C)[C@@H]1[C@H](O)C[C@@H]1[C@@]3(C)CC[C@H](O[C@@H]4O[C@H](CO)[C@@H](O)[C@H](O)[C@H]4O)C(C)(C)[C@@H]3CC[C@]12C [Rh2, 20(S)-protopanaxdiol-3-O-β-D-glucopyranoside] |  |  |  | insoluble even at a low concentration | showed cytotoxicity
